Experiment in all cases: In vitro antibacterial activity test (broth microdilution)
Holding throughout (format): cell-based

Test [1] relates to K. pneumoniae β13. In short, it runs like this: (§1)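 Clinical isolates were tested in two-fold dilution series (final 0.0626–128 ug/mL, 2.5% v/v DMSO) by the CLSI broth microdilution method. Values are MIC90, the lowest concentration preventing visible growth of 90% of organisms compared with untreated control.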
Test [2] deals with K. pneumoniae β14. In short, it runs like this: as §1
The subject of test [3] is A. baumannii 46. Put shortly:
as §1

The subject of test [4] is E. coli β4. In short, it runs like this: as §1
Test [5] concerns M. catarrhalis 2524. Put shortly:
as §1

For test [6], the system named is A. baumannii 49. Put shortly:
as §1

The subject of test [7] is E. cloacae β19. In short, it runs like this:
as §1

The test system of test [8] is P. aeruginosa 37. Put shortly: as §1
The test system of test [9] is A. calcoaceticus ATCC15473. In short, it runs like this: as §1
The test system of test [10] is P. aeruginosa 6065Y. Put shortly:
as §1

The test system of test [11] is E. coli AG100. In short, it runs like this:
as §1

For test [12], the system named is K. pneumoniae β10. In short, it runs like this:
as §1

For test [13], the system named is P. aeruginosa 1912E. In short, it runs like this:
as §1

In test [14] the test system is P. aeruginosa 40. Put shortly: as §1
For test [15], the system named is P. aeruginosa 43. In short, it runs like this:
as §1

The test system of test [16] is K. pneumoniae 2011E. Put shortly: as §1
Test [17] relates to A. baumannii 52. In short, it runs like this: as §1
Test [18] relates to K. pneumoniae β9. In short, it runs like this:
as §1

The subject of test [19] is K. pneumoniae β11. In short, it runs like this: as §1
Where [20] appears, read: Acinetobacter baumannii, 46, A. baumannii 46.
Setting [21] is: Acinetobacter baumannii, 49, A. baumannii 49.
Where [22] appears, read: Pseudomonas aeruginosa, 37, P. aeruginosa 37.
[23] abbreviates: Acinetobacter calcoaceticus, ATCC15473, A. calcoaceticus ATCC15473.

Converted amounts (≈) assume the structure as drawn. Like-named read-outs stand apart in the source and are kept apart here. Some results are limits rather than exact numbers.

As to `CC(C)(O/N=C(\C(=O)N[C@@H]1C(=O)N2C(C(=O)[O-])=C(/C=C/C[n+]3cnc(N)c(NCCN)c3N)CSC12)c1csc(N)n1)C(=O)O` (stereo partly shown) [Compound 44], the MIC90 in [1] (Klebsiella pneumoniae) is 1 µg/mL (≈ 1.51 µM); in test [2] (Klebsiella pneumoniae) it was 1 µg/mL (≈ 1.51 µM); in test [3] (setting [20]), 16 µg/mL (≈ 24.2 µM); in [4] (Escherichia coli) it was 0.5 µg/mL (≈ 0.756 µM); in test [5] (Moraxella catarrhalis, 2524) it was under 0.0625 µg/mL; in test [6] (setting [21]) it was over 128 µg/mL. The MIC90 in [7] (Enterobacter cloacae) is 0.5 µg/mL (≈ 0.756 µM); in test [8] (setting [22]), 16 µg/mL (≈ 24.2 µM); in [9] (setting [23]) it was 1 µg/mL (≈ 1.51 µM); in test [10] (Pseudomonas aeruginosa, 6065Y), 32 µg/mL (≈ 48.4 µM); in [11] (Escherichia coli, AG100), 0.25 µg/mL (≈ 0.378 µM); in test [12] (Klebsiella pneumoniae), 0.5 µg/mL (≈ 0.756 µM). Moreover, the MIC90 in test [13] (Pseudomonas aeruginosa, 1912E) was 8 µg/mL (≈ 12.1 µM); in test [14] (Pseudomonas aeruginosa, 40) it was 16 µg/mL (≈ 24.2 µM); in test [15] (Pseudomonas aeruginosa, 43), 128 µg/mL (≈ 193 µM); in test [16] (Klebsiella pneumoniae, 2011E), 0.5 µg/mL (≈ 0.756 µM); in [17] (Acinetobacter baumannii, 52) it was over 128 µg/mL; in test [18] (Klebsiella pneumoniae), 1 µg/mL (≈ 1.51 µM). The compound further came in with an MIC90 in test [19] (Klebsiella pneumoniae) of 32 µg/mL (≈ 48.4 µM).
With `CC(C)(ON=C(C(=O)NC1C(=O)N2C(C(=O)O)=C(C=CC[n+]3cnc(N)c(NC(=O)CCN)c3N)CSC12)c1csc(N)n1)C(=O)O.O=C([O-])C(F)(F)F` (stereo not shown) [Compound 45], the MIC90 in test [1] (K. pneumoniae β13) is 0.5 µg/mL; in test [2], 1 µg/mL; in test [3] (A. baumannii 46), 16 µg/mL; in test [4] it was 0.25 µg/mL; in test [5] (M. catarrhalis 2524), under 0.0625 µg/mL; in [6] (A. baumannii 49), over 128 µg/mL. Further, the MIC90 is 0.25 µg/mL in test [7]; 16 µg/mL in test [8] (P. aeruginosa 37); 2 µg/mL in test [9] (A. calcoaceticus ATCC15473); 16 µg/mL in test [10]; 0.25 µg/mL in test [11] (E. coli AG100); 0.5 µg/mL in [12] (K. pneumoniae β10). The MIC90 was 4 µg/mL in test [13]; 8 µg/mL in [14] (P. aeruginosa 40); over 128 µg/mL in test [15] (P. aeruginosa 43); 0.5 µg/mL in test [16] (K. pneumoniae 2011E); over 128 µg/mL in test [17] (A. baumannii 52); 0.5 µg/mL in test [18] (K. pneumoniae β9). The compound further returned an MIC90 in test [19] (K. pneumoniae β11) of 16 µg/mL.
On to `CNCCNc1c[n+](C/C=C/C2=C(C(=O)[O-])N3C(=O)[C@@H](NC(=O)/C(=N\OC(C)(C)C(=O)O)c4csc(N)n4)C3SC2)cnc1N` (stereo partly shown) [Compound 51], for which the MIC90 in test [1] (Klebsiella pneumoniae) is 0.5 µg/mL (≈ 0.757 µM); in test [2] (Klebsiella pneumoniae), 0.5 µg/mL (≈ 0.757 µM); in test [3] (setting [20]) it was 8 µg/mL (≈ 12.1 µM); in [4] (Escherichia coli), 0.125 µg/mL (≈ 0.189 µM); in test [5] (Moraxella catarrhalis, 2524), under 0.0625 µg/mL; in test [6] (setting [21]), over 128 µg/mL. Besides, the MIC90 in [7] (Enterobacter cloacae) was 32 µg/mL (≈ 48.4 µM); in test [8] (setting [22]) it was 32 µg/mL (≈ 48.4 µM); in test [9] (setting [23]) it was 0.5 µg/mL (≈ 0.757 µM); in test [10] (Pseudomonas aeruginosa, 6065Y), 32 µg/mL (≈ 48.4 µM); in [11] (Escherichia coli, AG100) it was 0.125 µg/mL (≈ 0.189 µM); in [12] (Klebsiella pneumoniae), 0.25 µg/mL (≈ 0.378 µM). In addition, the MIC90 in test [13] (Pseudomonas aeruginosa, 1912E) is 2 µg/mL (≈ 3.03 µM); in test [14] (Pseudomonas aeruginosa, 40) it was 4 µg/mL (≈ 6.05 µM); in test [15] (Pseudomonas aeruginosa, 43) it was 64 µg/mL (≈ 96.9 µM); in test [16] (Klebsiella pneumoniae, 2011E) it was 0.5 µg/mL (≈ 0.757 µM); in test [17] (Acinetobacter baumannii, 52), 128 µg/mL (≈ 194 µM); in [18] (Klebsiella pneumoniae), 0.5 µg/mL (≈ 0.757 µM). Further, the MIC90 in [19] (Klebsiella pneumoniae) came to 32 µg/mL (≈ 48.4 µM).
Take `C[C@H](O/N=C(\C(=O)N[C@@H]1C(=O)N2C(C(=O)[O-])=C(/C=C/C[n+]3cnc(N)c(NCCN)c3)CSC12)c1csc(N)n1)C(=O)O` (stereo partly shown) [Compound 52]: the MIC90 in test [1] (Klebsiella pneumoniae) was 4 µg/mL (≈ 6.32 µM); in test [2] (Klebsiella pneumoniae), 8 µg/mL (≈ 12.6 µM); in test [3] (setting [20]), 1 µg/mL (≈ 1.58 µM); in test [4] (Escherichia coli), under 0.0625 µg/mL; in [5] (Moraxella catarrhalis, 2524) it was under 0.0625 µg/mL; in test [6] (setting [21]), over 128 µg/mL. The MIC90 was 8 µg/mL (≈ 12.6 µM) in [7] (Enterobacter cloacae); 16 µg/mL (≈ 25.3 µM) in test [8] (setting [22]); 1 µg/mL (≈ 1.58 µM) in test [9] (setting [23]); 4 µg/mL (≈ 6.32 µM) in test [10] (Pseudomonas aeruginosa, 6065Y); under 0.0625 µg/mL in test [11] (Escherichia coli, AG100); 1 µg/mL (≈ 1.58 µM) in test [12] (Klebsiella pneumoniae). Moreover, the MIC90 is 0.5 µg/mL (≈ 0.79 µM) in [13] (Pseudomonas aeruginosa, 1912E); 2 µg/mL (≈ 3.16 µM) in test [14] (Pseudomonas aeruginosa, 40); 32 µg/mL (≈ 50.6 µM) in test [15] (Pseudomonas aeruginosa, 43); under 0.0625 µg/mL in test [16] (Klebsiella pneumoniae, 2011E); over 128 µg/mL in test [17] (Acinetobacter baumannii, 52); 4 µg/mL (≈ 6.32 µM) in test [18] (Klebsiella pneumoniae). Besides, the MIC90 in test [19] (Klebsiella pneumoniae) is 128 µg/mL (≈ 202 µM).
